# Source: the supplement of paper PMC11208160
# Test: recombinant barcode read abundance after kanamycin selection (control-corrected) (log10(CPM+1)); higher = more efficient recombination; sequences stand for … in AGTGCAGAGAAAATCGGCCAGTTTTCTCTGCCTGCAGTCCGCATGCCGT…AGATTTATGCAGCGGACTGCCTTTCTCCCAAAGTGATAAACCGGACAGTATCATGGACCGGTTTTCCCGGTAATCCGTATTTGCAAGGTTGGTTTCACT; site = the 11-nt target
# Procedure, shortened: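 Two replicates per condition were plated: chloramphenicol/ampicillin LB agar for the control, and chloramphenicol/ampicillin/kanamycin with 0.1 mM IPTG for selection. The pooled E. coli screen behind them paired targets with IS621 bridge RNA target-binding loops. Recombination efficiency is expressed from averaged, control-corrected barcode counts per million at recombinant junctions, as log10(CPM+1).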
# 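Further: IS621 recombinase and bridge RNA in Escherichia coli cells.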
row,Sequence,recombinant barcode read abundance (log10)
1,GAGGGTCCTTGGGTTCTAACCTGTTGCTT (site GAGGGTCCTAC),0.598
2,GAGGGTCCTTGGGTTCTAACCTGTTGCTT (site GAGGGTCCTAG),1.72
3,GAGGGTCCTTGGGTTCTAACCTGTTGCTT (site GAGGGTCCTAT),1.83
4,GAGGGTGCTTGGGTTCTAACCTGTTGCCT (site GAGGGTGCTAG),1.89
5,GAGGGTGCTTGGGTTCTAACCTGTTGCCT (site GAGGGTTCTAT),0.121
6,GAGGTATCTTGGGTTCTAACCTGTTGCCA (site GAGGTATCTAC),0.038
7,GAGGTATCTTGGGTTCTAACCTGTTGCCA (site GAGGTATCTTG),1.12
8,GAGGTATCTTGGGTTCTAACCTGTTGCTA (site GAGGTATCTAA),0.201
9,GAGGTATCTTGGGTTCTAACCTGTTGCTA (site GAGGTATCTTA),0.345
10,GAGGTGCCTTGGGTTCTAACCTGTTGCTG (site CTAACTACTAC),0.0482
11,GAGGTGCCTTGGGTTCTAACCTGTTGCTG (site GAGGTGCCTCA),2
12,GAGTCGCCTTGGGTTCTAACCTGTTGCCT (site GAGTCGCCTAG),0.263
13,GAGTCGCCTTGGGTTCTAACCTGTTGCCT (site GAGTCGTCTAG),0.118
14,GAGTCGCCTTGGGTTCTAACCTGTTGCGG (site GAGTAGCCTCC),0.0862
15,GAGTCGCCTTGGGTTCTAACCTGTTGCGG (site GAGTCGCCTCC),1.22
16,GAGTCGCCTTGGGTTCTAACCTGTTGCGG (site GAGTGGCCTCC),0.188
17,GAGTCGCCTTGGGTTCTAACCTGTTGCGG (site GAGTTGCCTCC),0.0886
18,GAGTCGGCTTGGGTTCTAACCTGTTGCTT (site GAGACGGCTAA),0.23
19,GAGTCGGCTTGGGTTCTAACCTGTTGCTT (site GAGCCGGCTAA),0
20,GAGTCGGCTTGGGTTCTAACCTGTTGCTT (site GAGGCGGCTAA),0.0495
21,GAGTCGGCTTGGGTTCTAACCTGTTGCTT (site GAGTCGGCTAA),0.778
22,GAGTCTACTTGGGTTCTAACCTGTTGCAG (site GAGTCTACTCG),0.339

row,Sequence,recombinant barcode read abundance (log10)
1,GAGTCTACTTGGGTTCTAACCTGTTGCAG (site GAGTCTACTCT),0.494
2,GAGTCTACTTGGGTTCTAACCTGTTGCTT (site GAATCTACTAA),0.0356
3,GAGTCTACTTGGGTTCTAACCTGTTGCTT (site GACTCTACTAA),0.813
4,GAGTCTACTTGGGTTCTAACCTGTTGCTT (site GAGTCTACTAA),0
5,GAGTCTACTTGGGTTCTAACCTGTTGCTT (site GATTCTACTAA),0.0603
6,GAGTCTTCTTGGGTTCTAACCTGTTGCCA (site CTACAGGCTGT),0.281
7,GAGTCTTCTTGGGTTCTAACCTGTTGCCA (site GAGTCTTCTTG),0.147
8,GAGTCTTCTTGGGTTCTAACCTGTTGCTA (site GAGTACTCTTA),0.0434
9,GAGTCTTCTTGGGTTCTAACCTGTTGCTA (site GAGTCTTCTTA),0.0462
10,GAGTGCTCTTGGGTTCTAACCTGTTGCAG (site GAGCGCTCTCT),0.676
11,GAGTGCTCTTGGGTTCTAACCTGTTGCAG (site GAGTGCTCTCT),1.26
12,GAGTGGACTTGGGTTCTAACCTGTTGCGT (site GACCGGACTAC),0.349
13,GAGTGGACTTGGGTTCTAACCTGTTGCGT (site GAGTGGACTAC),2.7
14,GAGTGTCCTTGGGTTCTAACCTGTTGCGA (site GAGTGTCCTTC),1.87
15,GAGTGTCCTTGGGTTCTAACCTGTTGCGA (site GTGTCTCCTTC),0.0874
16,GAGTTCACTTGGGTTCTAACCTGTTGCAG (site AGTCGTTCTAG),0.141
17,GAGTTCACTTGGGTTCTAACCTGTTGCAG (site GAGTTCACTCT),1.79
18,GAGTTGCCTTGGGTTCTAACCTGTTGCCT (site GAGTTGCCTAG),1.05
19,GAGTTGCCTTGGGTTCTAACCTGTTGCCT (site GCGTTGCCTAG),0.107
20,GAGTTGCCTTGGGTTCTAACCTGTTGCCT (site GGGTTGCCTAG),0.0448
21,GAGTTGCCTTGGGTTCTAACCTGTTGCCT (site GTGTTGCCTAG),1.59
22,GAGTTGCCTTGGGTTCTAACCTGTTGCGG (site GAGTAGCCTCC),0.0344

row,Sequence,recombinant barcode read abundance (log10)
1,GAGTTGCCTTGGGTTCTAACCTGTTGCGG (site GAGTCGCCTCC),0.25
2,GAGTTGCCTTGGGTTCTAACCTGTTGCGG (site GAGTGGCCTCC),0.101
3,GAGTTGCCTTGGGTTCTAACCTGTTGCGG (site GAGTTGCCTCC),2.32
4,GAGTTTGCTTGGGTTCTAACCTGTTGCCT (site GAGTTTGCTAG),0.572
5,GAGTTTGCTTGGGTTCTAACCTGTTGCCT (site GCGTTTGCTAG),0.0311
6,GAGTTTGCTTGGGTTCTAACCTGTTGCCT (site GGGTTTGCTAG),0.124
7,GAGTTTGCTTGGGTTCTAACCTGTTGCCT (site GTGTTTGCTAG),0.0382
8,GATACGGCTTGGGTTCTAACCTGTTGCCT (site GATACGACTAG),0.169
9,GATACGGCTTGGGTTCTAACCTGTTGCCT (site GATACGCCTAG),0
10,GATACGGCTTGGGTTCTAACCTGTTGCCT (site GATACGGCTAG),0.149
11,GATACGGCTTGGGTTCTAACCTGTTGCCT (site GATACGTCTAG),0.0137
12,GATAGGCCTTGGGTTCTAACCTGTTGCCT (site GATAGGCCTAG),0.101
13,GATAGGCCTTGGGTTCTAACCTGTTGCCT (site GTTAGGCCTAG),0.031
14,GATAGTCCTTGGGTTCTAACCTGTTGCCT (site GATAGTACTAG),0.122
15,GATAGTCCTTGGGTTCTAACCTGTTGCCT (site GATAGTCCTAG),0.322
16,GATAGTCCTTGGGTTCTAACCTGTTGCCT (site GATAGTGCTAG),0.161
17,GATAGTCCTTGGGTTCTAACCTGTTGCCT (site GATAGTTCTAG),0.159
18,GATATAGCTTGGGTTCTAACCTGTTGCGG (site GATATAGCTCC),2.31
19,GATATAGCTTGGGTTCTAACCTGTTGCGG (site GTGATAGCTCC),0.0376
20,GATCCCACTTGGGTTCTAACCTGTTGCCT (site GATCCCACTAG),1.34
21,GATCCCACTTGGGTTCTAACCTGTTGCCT (site GATGCCACTAG),0.192
22,GATCGATCTTGGGTTCTAACCTGTTGCCT (site GATCGATCTAA),0.0447

row,Sequence,recombinant barcode read abundance (log10)
1,GATCGATCTTGGGTTCTAACCTGTTGCCT (site GATCGATCTAC),0.159
2,GATCGATCTTGGGTTCTAACCTGTTGCCT (site GATCGATCTAG),0.663
3,GATCGATCTTGGGTTCTAACCTGTTGCCT (site GATCGATCTAT),0.0541
4,GATCGATCTTGGGTTCTAACCTGTTGCTT (site GATCGATCTAA),0.349
5,GATCGATCTTGGGTTCTAACCTGTTGCTT (site GATCGATCTAC),0
6,GATCGATCTTGGGTTCTAACCTGTTGCTT (site GATCGATCTAG),0.248
7,GATCGATCTTGGGTTCTAACCTGTTGCTT (site GATCGATCTAT),0.0953
8,GATCGGACTTGGGTTCTAACCTGTTGCGG (site GATCGGACTCC),1.69
9,GATCGGACTTGGGTTCTAACCTGTTGCGG (site GTTCGGACTCC),0.596
10,GATGCACCTTGGGTTCTAACCTGTTGCGG (site GATGCACCTCC),2.36
11,GATGCACCTTGGGTTCTAACCTGTTGCGG (site TGATTGACTAA),0.0617
12,GATGCTACTTGGGTTCTAACCTGTTGCAG (site GATACTACTCT),0.0793
13,GATGCTACTTGGGTTCTAACCTGTTGCAG (site GATGCTACTCT),1.04
14,GATGCTACTTGGGTTCTAACCTGTTGCGG (site GAAGCTACTAC),0.128
15,GATGCTACTTGGGTTCTAACCTGTTGCGG (site GATGCTACTCC),2.14
16,GATGGAGCTTGGGTTCTAACCTGTTGCGG (site GATCGAGCTTC),0.198
17,GATGGAGCTTGGGTTCTAACCTGTTGCGG (site GATGGAGCTCC),2.57
18,GATGGGTCTTGGGTTCTAACCTGTTGCCT (site GATGGGTCTAG),1.37
19,GATGGGTCTTGGGTTCTAACCTGTTGCCT (site GCTGGGTCTAG),0.015
20,GATGGTCCTTGGGTTCTAACCTGTTGCGG (site GACGGTCCTCC),0.306
